# Results reported in patent US9371265B2, “Compositions and methods related to inhibitors of JAK kinase” (EP PHARMA, INC., priority 2012, dated 2016).
# Columns and labels:
# VEGFR2 = VEGFR2 (Homo sapiens, UniProt P35968); assay: Kinase panel: VEGFR2; format: biochemical; conditions: 10 μM EP009
# Experimental: (§1) Achieving JAK3 selectivity remains a significant challenge in the development of new small molecules for the treatment of cancer and immune-derived diseases. As such, the inventors employed cell-based screening assays of small-molecule libraries based upon the chemical scaffold of the established JAK3 inhibitor NC1153 (Stepkowski et al., J Immunol. (2005), 175(7):4236-4246) EP009 (FIG. 2A) was selected as a lead compound due to improved intrinsic stability (>95% purity in various solvents at 37° C. for 24 hours; FIG. 3) and high-degree of JAK3 selectivity. To test JAK3 versus JAK2 specificity of EP009, the IL-2/JAK3-dependent Kit225, and IL-3/JAK2-dependent BaF/3 cell lines were used. Kit225 and BaF/3 cells growing in the presence of IL-2 or IL-3, respectively, were treated with ascending concentrations of EP009 for 12 hours and cellular JAK3 and JAK2 tyrosine phosphorylation levels detected by Western blot analysis (FIGS. 2B and 2C). Following densitometric analysis, EP009 was determined to dose-dependently reduce IL-2-mediated JAK3 tyrosine phosphorylation with a cellular 50% inhibitory concentration (IC50) between 10 and 20 μM (FIG. 2B). […] To globally evaluate specificity, the inhibitory activity of EP009 was measured against a panel of protein kinases distributed throughout the kinome using the scanEDGE profiling service (KINOMEscan). […]
# YANK3 = YANK3 (Homo sapiens, UniProt Q86UX6); assay: Kinase panel: YANK3; format: biochemical; conditions: 10 μM EP009
# Experimental: as §1
# DCAMKL1 = DCAMKL1 (Homo sapiens, UniProt O15075); assay: Kinase panel: DCAMKL1; format: biochemical; conditions: 10 μM EP009
# Experimental: as §1
# PIK3CA = PIK3CA (Homo sapiens, UniProt P42336); assay: Kinase panel: PIK3CA; format: biochemical; conditions: 10 μM EP009
# Experimental: as §1
# JAK3 = JAK3 (Homo sapiens, UniProt P52333); assay: IL-2-mediated JAK3 tyrosine phosphorylation in Kit225 cells (IP/Western blot, densitometry); format: cell-based; set-up: cellular JAK3 and JAK2 tyrosine phosphorylation levels detected by Western blot analysis; endogenous in cells; host or cells: Kit225; conditions: 12 hours, densitometric analysis, read-out: cellular IC50, IL-2-mediated JAK3 tyrosine phosphorylation
# Experimental: FIGS. 2A-2F. Selective inhibition of JAK3 by EP009 results in loss of JAK3-dependent tumor cell line viability with no detectable off-target effects in key cell types. (A) Chemical structure of EP009 (M.W. 224.34). (B) Kit225 or (C) BaF/3 cells cultured in the presence of IL-2 or IL-3, respectively, were treated with vehicle (PBS; lane a) or increasing amounts of EP009 (0-50 μM; lanes b-h) for 12 hours. Cells were then lysed, clarified, and immunoprecipitated (IP) with anti-JAK3 (α-JAK3) or anti-JAK2 (α-JAK2), and subjected to Western blot (WB) analysis with anti-phosphotyrosine (α-pY). Blots were stripped and reprobed with corresponding antibody to verify equivalent protein loading. […] (E) Kit225 or BaF/3 cells were cultured with increasing amounts of EP009 (0-10 μM) for 72 hours and cell viability measured with the MTS tetrazolium salt assay. Values represent mean absorbance (OD490-OD650 nm) normalized to vehicle (PBS) treated control cells, while error bars represent the standard deviation (n=3). (F) HEK293, HEPG2, or naïve primary human PBMCs were cultured with increasing amounts of EP009 (0-10 μM) for 72 hours and cell viability measured with the MTS tetrazolium salt assay. Values represent mean absorbance (OD490-OD650 nm) normalized to vehicle (PBS) treated control cells, while error bars represent the standard deviation (n=3). […]
# IKK-beta = IKK-beta (Homo sapiens, UniProt O14920); assay: Kinase panel: IKK-beta; format: biochemical; conditions: 10 μM EP009
# Experimental: as §1
# CHEK1 = CHEK1 (Homo sapiens, UniProt O14757); assay: Kinase panel: CHEK1; format: biochemical; conditions: 10 μM EP009
# Experimental: as §1
# AURKA = AURKA (Homo sapiens, UniProt O14965); assay: Kinase panel: AURKA; format: biochemical; conditions: 10 μM EP009
# Experimental: as §1
# DYRK1B = DYRK1B (Homo sapiens, UniProt Q9Y463); assay: Kinase panel: DYRK1B; format: biochemical; conditions: 10 μM EP009
# Experimental: as §1
# RIOK2 = RIOK2 (Homo sapiens, UniProt Q9BVS4); assay: Kinase panel: RIOK2; format: biochemical; conditions: 10 μM EP009
# Experimental: as §1
# EGFR = EGFR (Homo sapiens, UniProt P00533); assay: Kinase panel: EGFR; format: biochemical; conditions: 10 μM EP009
# Experimental: as §1
# AURKA, sequence (O14965 whole entry): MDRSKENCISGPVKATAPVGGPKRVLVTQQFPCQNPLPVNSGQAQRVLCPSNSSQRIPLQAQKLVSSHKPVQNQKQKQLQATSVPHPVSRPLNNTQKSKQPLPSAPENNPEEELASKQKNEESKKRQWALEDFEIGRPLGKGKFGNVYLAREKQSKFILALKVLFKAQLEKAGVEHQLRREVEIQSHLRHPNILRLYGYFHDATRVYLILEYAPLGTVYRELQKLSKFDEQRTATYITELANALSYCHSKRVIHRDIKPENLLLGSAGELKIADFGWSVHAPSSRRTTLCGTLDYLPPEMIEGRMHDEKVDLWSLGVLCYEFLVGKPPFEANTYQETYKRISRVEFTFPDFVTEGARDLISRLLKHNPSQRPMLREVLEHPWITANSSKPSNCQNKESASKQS
# RIOK2, sequence (Q9BVS4 whole entry): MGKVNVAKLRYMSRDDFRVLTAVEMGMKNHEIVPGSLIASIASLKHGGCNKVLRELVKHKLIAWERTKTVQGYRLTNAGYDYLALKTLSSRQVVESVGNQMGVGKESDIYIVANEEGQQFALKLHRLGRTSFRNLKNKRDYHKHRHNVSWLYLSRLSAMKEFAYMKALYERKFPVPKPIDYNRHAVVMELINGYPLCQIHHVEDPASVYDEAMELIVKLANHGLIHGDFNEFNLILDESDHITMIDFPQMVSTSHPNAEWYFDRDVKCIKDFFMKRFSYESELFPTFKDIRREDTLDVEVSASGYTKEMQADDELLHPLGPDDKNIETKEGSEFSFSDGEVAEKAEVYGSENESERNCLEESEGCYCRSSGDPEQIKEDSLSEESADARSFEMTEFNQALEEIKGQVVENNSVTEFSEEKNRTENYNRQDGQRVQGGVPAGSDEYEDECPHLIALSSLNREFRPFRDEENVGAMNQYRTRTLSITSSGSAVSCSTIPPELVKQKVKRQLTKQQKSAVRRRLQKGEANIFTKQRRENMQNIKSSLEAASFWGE
# CHEK1, sequence (O14757 whole entry): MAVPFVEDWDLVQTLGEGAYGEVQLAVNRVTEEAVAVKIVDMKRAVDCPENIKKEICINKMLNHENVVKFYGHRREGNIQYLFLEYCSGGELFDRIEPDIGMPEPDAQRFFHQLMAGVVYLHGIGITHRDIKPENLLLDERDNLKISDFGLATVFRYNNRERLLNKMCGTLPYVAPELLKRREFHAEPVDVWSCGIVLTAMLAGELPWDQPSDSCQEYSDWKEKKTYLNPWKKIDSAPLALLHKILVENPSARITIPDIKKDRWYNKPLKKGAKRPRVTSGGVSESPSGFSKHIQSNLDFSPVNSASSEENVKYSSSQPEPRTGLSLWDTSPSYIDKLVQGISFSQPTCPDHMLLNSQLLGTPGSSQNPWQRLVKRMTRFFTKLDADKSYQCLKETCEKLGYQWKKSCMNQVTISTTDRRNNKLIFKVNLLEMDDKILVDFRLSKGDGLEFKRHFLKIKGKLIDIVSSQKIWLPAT
# DYRK1B, sequence (Q9Y463 whole entry): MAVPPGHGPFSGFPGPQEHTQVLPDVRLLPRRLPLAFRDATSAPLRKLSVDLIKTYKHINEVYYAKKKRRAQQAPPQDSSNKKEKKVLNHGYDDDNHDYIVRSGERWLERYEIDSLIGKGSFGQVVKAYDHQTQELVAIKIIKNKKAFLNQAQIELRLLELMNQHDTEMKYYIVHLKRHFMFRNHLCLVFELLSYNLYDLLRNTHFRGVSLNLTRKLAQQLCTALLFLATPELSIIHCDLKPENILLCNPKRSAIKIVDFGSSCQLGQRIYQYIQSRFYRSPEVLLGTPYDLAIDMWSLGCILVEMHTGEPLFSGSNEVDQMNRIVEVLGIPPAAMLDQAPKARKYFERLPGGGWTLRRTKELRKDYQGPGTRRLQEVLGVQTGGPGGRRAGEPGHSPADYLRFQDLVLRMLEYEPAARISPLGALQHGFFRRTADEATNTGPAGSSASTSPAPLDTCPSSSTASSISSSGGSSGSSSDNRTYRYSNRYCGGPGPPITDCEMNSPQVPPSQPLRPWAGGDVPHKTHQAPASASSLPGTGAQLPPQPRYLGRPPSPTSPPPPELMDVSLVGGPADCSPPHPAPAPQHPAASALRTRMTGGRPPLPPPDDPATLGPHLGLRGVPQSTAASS
# DCAMKL1, sequence (O15075 whole entry): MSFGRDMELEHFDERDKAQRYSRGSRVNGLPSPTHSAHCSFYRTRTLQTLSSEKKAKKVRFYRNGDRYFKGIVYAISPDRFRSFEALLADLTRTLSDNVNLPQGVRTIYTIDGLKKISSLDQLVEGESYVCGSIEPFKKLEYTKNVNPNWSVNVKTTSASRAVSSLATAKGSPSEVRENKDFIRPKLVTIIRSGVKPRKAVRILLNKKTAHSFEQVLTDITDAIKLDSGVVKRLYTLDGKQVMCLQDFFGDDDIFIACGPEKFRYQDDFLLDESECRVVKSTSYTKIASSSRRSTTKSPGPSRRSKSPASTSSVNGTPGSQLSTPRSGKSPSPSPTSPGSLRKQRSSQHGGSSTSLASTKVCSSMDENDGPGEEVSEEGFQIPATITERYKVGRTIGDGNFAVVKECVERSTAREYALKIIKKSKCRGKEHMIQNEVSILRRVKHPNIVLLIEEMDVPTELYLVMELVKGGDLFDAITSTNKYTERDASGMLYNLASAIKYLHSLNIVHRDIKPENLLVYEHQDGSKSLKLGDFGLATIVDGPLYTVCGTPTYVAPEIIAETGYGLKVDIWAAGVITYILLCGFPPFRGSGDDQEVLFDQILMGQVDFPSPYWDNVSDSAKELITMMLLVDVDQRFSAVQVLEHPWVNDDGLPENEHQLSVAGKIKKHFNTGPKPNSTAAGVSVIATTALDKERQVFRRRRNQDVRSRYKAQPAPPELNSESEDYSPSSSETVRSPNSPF
# YANK3, sequence (Q86UX6 whole entry): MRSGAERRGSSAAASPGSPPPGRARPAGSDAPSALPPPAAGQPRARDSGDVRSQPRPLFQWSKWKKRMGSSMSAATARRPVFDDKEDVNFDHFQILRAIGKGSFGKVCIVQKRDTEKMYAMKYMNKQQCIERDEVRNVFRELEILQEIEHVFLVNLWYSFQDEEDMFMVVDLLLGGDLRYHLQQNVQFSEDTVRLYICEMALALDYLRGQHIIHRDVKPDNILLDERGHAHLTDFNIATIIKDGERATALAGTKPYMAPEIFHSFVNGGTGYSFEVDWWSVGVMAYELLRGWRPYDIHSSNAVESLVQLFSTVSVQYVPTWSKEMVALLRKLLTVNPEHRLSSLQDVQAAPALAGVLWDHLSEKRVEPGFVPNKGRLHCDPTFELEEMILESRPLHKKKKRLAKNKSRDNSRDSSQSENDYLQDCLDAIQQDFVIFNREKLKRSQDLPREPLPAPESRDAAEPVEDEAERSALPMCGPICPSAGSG
# VEGFR2, sequence (P35968 20-1356): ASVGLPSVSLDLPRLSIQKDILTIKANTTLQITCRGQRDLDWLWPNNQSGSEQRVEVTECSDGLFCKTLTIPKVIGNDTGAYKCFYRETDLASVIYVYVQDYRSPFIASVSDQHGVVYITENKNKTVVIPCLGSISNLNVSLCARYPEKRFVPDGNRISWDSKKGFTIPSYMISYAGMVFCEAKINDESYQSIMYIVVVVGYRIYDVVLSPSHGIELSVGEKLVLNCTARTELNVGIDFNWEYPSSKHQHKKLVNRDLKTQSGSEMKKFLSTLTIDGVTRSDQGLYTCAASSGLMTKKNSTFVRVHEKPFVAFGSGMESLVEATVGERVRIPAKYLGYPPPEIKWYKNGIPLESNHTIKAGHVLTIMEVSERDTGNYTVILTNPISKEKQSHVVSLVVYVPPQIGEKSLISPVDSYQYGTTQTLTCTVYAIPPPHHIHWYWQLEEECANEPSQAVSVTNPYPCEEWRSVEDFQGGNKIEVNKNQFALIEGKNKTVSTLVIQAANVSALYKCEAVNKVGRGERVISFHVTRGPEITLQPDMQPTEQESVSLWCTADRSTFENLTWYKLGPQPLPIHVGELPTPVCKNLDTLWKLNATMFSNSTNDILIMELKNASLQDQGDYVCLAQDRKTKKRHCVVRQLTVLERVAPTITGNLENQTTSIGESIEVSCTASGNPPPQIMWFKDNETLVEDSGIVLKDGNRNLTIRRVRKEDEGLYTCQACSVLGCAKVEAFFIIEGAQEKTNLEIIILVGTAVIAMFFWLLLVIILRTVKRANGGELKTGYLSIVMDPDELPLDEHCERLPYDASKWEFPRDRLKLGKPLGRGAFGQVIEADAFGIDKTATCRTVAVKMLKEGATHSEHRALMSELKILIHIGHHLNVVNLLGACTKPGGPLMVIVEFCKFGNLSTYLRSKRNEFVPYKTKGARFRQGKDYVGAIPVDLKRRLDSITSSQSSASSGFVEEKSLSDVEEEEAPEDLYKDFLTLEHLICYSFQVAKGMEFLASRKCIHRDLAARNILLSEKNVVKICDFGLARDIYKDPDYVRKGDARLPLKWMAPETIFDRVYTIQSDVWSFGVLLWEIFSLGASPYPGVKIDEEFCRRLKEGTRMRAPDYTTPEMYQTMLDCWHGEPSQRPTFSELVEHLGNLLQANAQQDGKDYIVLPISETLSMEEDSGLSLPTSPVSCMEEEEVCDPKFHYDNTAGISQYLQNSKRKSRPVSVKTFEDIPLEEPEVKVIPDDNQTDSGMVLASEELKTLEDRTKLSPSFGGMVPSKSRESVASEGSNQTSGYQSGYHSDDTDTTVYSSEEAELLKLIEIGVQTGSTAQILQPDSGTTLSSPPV
smiles,measurement,setting,value
"C=C1CCCCCCCCCC(CO)C1=O (stereo not drawn) [EP009, 2-(Hydroxymethyl)-12-methylenecyclododecanone]",Kinase Activity (% of Control),VEGFR2,100 % of Control
same,Kinase Activity (% of Control),YANK3,98 % of Control
same,Kinase Activity (% of Control),DCAMKL1,100 % of Control
same,Kinase Activity (% of Control),PIK3CA,76 % of Control
same,IC50,JAK3,10 to 20 µM
same,Kinase Activity (% of Control),IKK-beta,73 % of Control
same,Kinase Activity (% of Control),CHEK1,100 % of Control
same,inhibition of Aurora kinase A (AURKA),AURKA,45 % inhibition
same,Kinase Activity (% of Control),AURKA; AURKA,55 % of Control
same,Kinase Activity (% of Control),DYRK1B,100 % of Control
same,Kinase Activity (% of Control),RIOK2,69 % of Control
same,Kinase Activity (% of Control),EGFR,100 % of Control
